Assay results from ChEMBL document CHEMBL1201862, “PubChem BioAssay data set” (2004).
Activity calls are given as the source filed them.

Legend:
[1] = target: T1, Apoptotic protease-activating factor 1 (Homo sapiens, UniProt O14727); experiment: SAR analysis of small molecule Activators of Apaf-1 in a Fluorescent assay.; assay type: functional; conditions: read-out: EC50_Mean;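 also: caspase-3 cleavage of fluorogenic Rh110 DEVD substrate downstream of apoptosome activation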
T1 sequence (O14727 whole entry): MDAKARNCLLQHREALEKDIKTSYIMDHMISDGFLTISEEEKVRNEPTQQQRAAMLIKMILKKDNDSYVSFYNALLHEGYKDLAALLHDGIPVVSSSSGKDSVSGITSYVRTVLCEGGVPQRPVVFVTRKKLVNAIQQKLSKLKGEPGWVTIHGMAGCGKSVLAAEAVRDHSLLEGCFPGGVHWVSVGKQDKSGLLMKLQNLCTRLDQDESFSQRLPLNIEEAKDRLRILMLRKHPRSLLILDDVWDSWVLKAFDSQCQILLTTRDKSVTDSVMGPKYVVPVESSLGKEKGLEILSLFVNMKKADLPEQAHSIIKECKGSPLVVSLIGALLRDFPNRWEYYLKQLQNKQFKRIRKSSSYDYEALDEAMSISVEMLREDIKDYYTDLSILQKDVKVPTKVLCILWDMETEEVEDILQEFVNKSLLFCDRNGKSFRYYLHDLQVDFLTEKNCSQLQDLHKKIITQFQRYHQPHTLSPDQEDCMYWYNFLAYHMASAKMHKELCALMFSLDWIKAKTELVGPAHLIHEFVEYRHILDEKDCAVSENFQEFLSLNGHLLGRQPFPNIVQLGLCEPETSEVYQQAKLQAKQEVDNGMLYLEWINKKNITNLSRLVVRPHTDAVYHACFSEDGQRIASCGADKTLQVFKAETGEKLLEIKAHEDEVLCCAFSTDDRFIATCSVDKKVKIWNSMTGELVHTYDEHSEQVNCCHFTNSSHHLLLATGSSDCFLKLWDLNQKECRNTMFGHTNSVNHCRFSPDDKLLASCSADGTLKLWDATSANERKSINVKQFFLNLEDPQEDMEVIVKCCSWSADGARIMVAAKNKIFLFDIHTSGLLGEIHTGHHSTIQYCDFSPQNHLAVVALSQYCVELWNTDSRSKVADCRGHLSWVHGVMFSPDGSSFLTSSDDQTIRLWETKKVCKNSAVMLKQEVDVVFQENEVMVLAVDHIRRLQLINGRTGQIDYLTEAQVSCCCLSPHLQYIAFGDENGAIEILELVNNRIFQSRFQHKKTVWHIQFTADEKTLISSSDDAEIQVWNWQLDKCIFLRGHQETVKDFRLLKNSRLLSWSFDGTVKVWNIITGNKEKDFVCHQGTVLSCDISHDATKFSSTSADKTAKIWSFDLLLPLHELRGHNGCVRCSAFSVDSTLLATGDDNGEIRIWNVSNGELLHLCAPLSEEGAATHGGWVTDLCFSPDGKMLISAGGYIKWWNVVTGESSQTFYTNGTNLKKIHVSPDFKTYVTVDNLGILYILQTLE

[2] = (§1) Counterscreen for antagonists of the orexin 1 receptor (OX1R; HCRTR1): Fluorescence-based cell-based high throughput dose response assay to identify antagonists of the parental CHO cell line. [Related pubchem assays (depositor defined):AID434989, AID435008, AID463079, AID485270, AID492963, AID492964, AID492965, AID493232, AID504699, AID504701]; assay type: functional
[3] = target: T2, Orexin/Hypocretin receptor type 1 (Homo sapiens, UniProt O43613); experiment: Homogeneous Time Resolved Fluorescence (HTRF)-based cell-based high throughput dose response assay for antagonists of the orexin 1 receptor (OX1R; HCRTR1). [Related pubchem assays (depositor defined):AID434989, AID435008, AID463079, AID485270, AID492963, AID492964, AID492965, AID493232, AID504717, AID504718]; assay type: functional
T2 sequence (O43613 whole entry): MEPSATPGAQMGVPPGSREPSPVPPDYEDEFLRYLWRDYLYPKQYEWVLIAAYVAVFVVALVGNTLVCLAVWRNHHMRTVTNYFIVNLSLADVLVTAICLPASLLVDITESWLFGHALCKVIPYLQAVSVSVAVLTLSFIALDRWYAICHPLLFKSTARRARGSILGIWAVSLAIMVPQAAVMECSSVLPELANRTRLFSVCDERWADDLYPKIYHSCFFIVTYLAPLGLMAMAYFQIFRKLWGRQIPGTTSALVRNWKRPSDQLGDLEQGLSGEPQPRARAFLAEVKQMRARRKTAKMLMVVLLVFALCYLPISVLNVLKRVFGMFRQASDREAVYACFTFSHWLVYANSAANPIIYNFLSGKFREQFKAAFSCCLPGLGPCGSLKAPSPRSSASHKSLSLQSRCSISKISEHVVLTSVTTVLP

CHO-K1 = experiment: as §1, with “Homogeneous time resolved fluorescence (HTRF)-based” for “Fluorescence-based”, “cell-based” for “cell-based high throughput”, “CHO-K1” for “CHO”; assay type: functional; conditions: Cricetulus griseus;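 also: potency for inhibition of ATP-stimulated IP1 production as antagonists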
Orexin receptor type 2 [4] = target: T3, Orexin receptor type 2 (Homo sapiens, UniProt O43614); experiment: Counterscreen assay for antagonists of the orexin 1 receptor (OX1R; HCRTR1): Homogeneous Time Resolved Fluorescence (HTRF)-based cell-based dose response assay for antagonists of the orexin 2 receptor (OX2R; HCRTR2), run by assay provider.; assay type: functional
T3 sequence (O43614 whole entry): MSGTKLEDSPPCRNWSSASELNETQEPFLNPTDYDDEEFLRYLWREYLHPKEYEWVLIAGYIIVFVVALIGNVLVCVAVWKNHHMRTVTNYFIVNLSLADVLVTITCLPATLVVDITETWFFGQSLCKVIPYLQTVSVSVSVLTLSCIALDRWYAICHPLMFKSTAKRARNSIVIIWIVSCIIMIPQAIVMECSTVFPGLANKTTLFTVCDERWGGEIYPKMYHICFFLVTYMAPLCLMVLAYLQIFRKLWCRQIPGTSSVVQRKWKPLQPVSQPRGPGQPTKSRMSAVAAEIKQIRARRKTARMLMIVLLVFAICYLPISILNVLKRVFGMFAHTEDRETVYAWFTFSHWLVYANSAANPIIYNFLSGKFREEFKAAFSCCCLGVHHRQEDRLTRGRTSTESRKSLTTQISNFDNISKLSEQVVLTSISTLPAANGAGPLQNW

[5] = target: T2, Orexin/Hypocretin receptor type 1; experiment: Fluorescence-based cell-based high throughput dose response assay for antagonists of the orexin 1 receptor (OX1R; HCRTR1). [Related pubchem assays (depositor defined):AID434989, AID435008, AID463079, AID485270, AID492963, AID492964, AID492965, AID493232, AID504717, AID504718]; assay type: functional
Orexin receptor type 2 [6] = target: T3, Orexin receptor type 2; experiment: Counterscreen assay for antagonists of the orexin 1 receptor (OX1R; HCRTR1): Fluorescence-based cell-based dose response assay for antagonists of the orexin 2 receptor (OX2R; HCRTR2), run by assay provider.; assay type: functional
[7] = target: FAD-linked sulfhydryl oxidase ALR (Homo sapiens, UniProt P55789); experiment: ALR-catalysed DTT oxidation blockers – biochemical, H2O2 detection, luminescence, cherry-pick, dose response (AID 493248)
Chain of FAD-linked sulfhydryl oxidase ALR (P55789 whole entry): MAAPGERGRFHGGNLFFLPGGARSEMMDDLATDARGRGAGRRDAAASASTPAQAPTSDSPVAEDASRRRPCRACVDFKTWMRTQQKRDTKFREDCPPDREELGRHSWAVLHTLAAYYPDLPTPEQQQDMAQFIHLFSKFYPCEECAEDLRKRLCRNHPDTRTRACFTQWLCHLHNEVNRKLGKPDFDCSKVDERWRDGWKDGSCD

[8] = NIH3T3 cell viability loss – ATP luminescence, mouse fibroblasts, counter-screen, dose response (AID 2010); assay type: functional, cell-based;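 also: cells exposed to compound for about 90 hours before reading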
[9] = viability of PTEN-deleted HCT116 cells – cell-based, HCT116 PTEN knockout, dose response (AID 1047); assay type: functional;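 also: HCT116 colon tumor cells with PTEN knocked out; cells exposed to compound for 60 hours before readout; potency for loss of cell viability measured by luminescence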
[10] = viability loss of HPDE-C7K cells – cell-based, fluorescence, HTS, primary screen (AID 431); assay type: functional; conditions: Homo sapiens
[11] = target: Luciferin 4-monooxygenase (Photinus pyralis, UniProt P08659); experiment: Counter Screen for Luciferase-based Assay Positives. [Related pubchem assays: 620, 618, 411 ]
Chain of Luciferin 4-monooxygenase (P08659 whole entry, the tested form may be a part): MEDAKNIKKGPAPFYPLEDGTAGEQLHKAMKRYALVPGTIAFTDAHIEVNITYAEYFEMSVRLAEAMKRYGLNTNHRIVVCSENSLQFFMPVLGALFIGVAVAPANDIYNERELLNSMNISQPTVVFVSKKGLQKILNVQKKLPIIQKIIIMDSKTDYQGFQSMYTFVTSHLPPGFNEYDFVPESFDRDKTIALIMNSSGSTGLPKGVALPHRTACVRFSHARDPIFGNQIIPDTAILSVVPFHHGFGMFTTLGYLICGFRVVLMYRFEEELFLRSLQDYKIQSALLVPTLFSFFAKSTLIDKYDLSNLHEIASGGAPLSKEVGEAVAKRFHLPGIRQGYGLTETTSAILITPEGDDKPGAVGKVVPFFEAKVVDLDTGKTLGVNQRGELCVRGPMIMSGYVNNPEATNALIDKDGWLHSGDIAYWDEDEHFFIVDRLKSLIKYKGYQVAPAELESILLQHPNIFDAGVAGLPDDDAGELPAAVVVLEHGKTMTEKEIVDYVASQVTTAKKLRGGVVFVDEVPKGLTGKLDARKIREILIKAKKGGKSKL

[12] = target: Hepatocyte nuclear factor 4-alpha (Homo sapiens, UniProt P41235); assay type: functional, cell-based;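 also: biochemical luminescence-based dose-response counterscreen measuring inhibition of HNF4 dimerization, run alongside a screen for blockers of ABHD5–perilipin-5 interaction; split luciferase complementation of HNF4 fusion proteins in cell lysate measuring dimerization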
[13] = Trypanosoma cruzi growth suppression in host cells – NIH3T3 host cells, beta-gal luminescence, confirmation (AID 2044); assay type: functional, cell-based;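 also: intracellular parasites grown in NIH/3T3 mouse fibroblasts as host cells; luminescent beta-galactosidase reporter signal from transgenic T. cruzi replicating inside host cells; inhibitors lower the luminescence signal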
[14] = target: Glucose-6-phosphate 1-dehydrogenase (Homo sapiens, UniProt P11413); experiment: inhibition of Homo sapiens G6PD, dose series – biochemical, fluorescence, selectivity assay for P. falciparum G6PD inhibitor project, dose response (AID 504792); assay type: functional
[15] = viability of HCT116 lacking mutant beta-catenin – cell-based, human colon tumor, dose response (AID 1045); assay type: functional;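 also: HCT116 colon tumor cells with beta catenin knocked out; cells exposed to compound for 60 hours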
[16] = HEK-293T cell viability reduction – luminescence, B-cell screen hits, cytotoxicity control for BCR NF-kB inhibitor project, dose response (AID 489021); assay type: functional, cell-based;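 also: HEK-293T cells carrying an NF-kB luciferase reporter; cells exposed to compound for about 14 hours before viability readout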
[17] = HPDE-C7 pancreatic duct cell viability loss – fluorescence, HTS (AID 430); assay type: functional, cell-based; conditions: Homo sapiens
HT-1080 = experiment: HT1080 cell viability loss – fluorescence readout (AID 620); assay type: functional, cell-based; conditions: Homo sapiens
[18] = target: T4, Neuropeptides B/W receptor type 1 (Homo sapiens, UniProt P48145); experiment: human NPBW1 receptor blockade, IC50 – cell-based, fluorescence, dose response, set 5, late-stage follow-up (AID 588566); assay type: functional
T4 sequence (P48145 whole entry): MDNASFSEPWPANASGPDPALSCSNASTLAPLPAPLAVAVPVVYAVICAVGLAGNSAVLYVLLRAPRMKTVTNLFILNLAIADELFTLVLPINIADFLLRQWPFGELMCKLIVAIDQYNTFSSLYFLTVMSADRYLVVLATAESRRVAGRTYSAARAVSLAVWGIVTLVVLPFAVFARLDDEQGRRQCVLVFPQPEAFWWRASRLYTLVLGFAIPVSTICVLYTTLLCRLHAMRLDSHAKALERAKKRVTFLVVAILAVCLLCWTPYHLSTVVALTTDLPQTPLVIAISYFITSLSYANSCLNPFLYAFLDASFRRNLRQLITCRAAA

[19] = target: Melanin-concentrating hormone receptor 1 (Homo sapiens, UniProt Q99705); experiment: Late-stage fluorescence-based counterscreen for antagonists of the G-protein coupled receptor 7 (GPR7): cell-based dose response assay to identify antagonists of the melanin-concentrating hormone receptor 1 (MCHR1) Set 5.; assay type: functional
Chain of Melanin-concentrating hormone receptor 1 (Q99705 whole entry): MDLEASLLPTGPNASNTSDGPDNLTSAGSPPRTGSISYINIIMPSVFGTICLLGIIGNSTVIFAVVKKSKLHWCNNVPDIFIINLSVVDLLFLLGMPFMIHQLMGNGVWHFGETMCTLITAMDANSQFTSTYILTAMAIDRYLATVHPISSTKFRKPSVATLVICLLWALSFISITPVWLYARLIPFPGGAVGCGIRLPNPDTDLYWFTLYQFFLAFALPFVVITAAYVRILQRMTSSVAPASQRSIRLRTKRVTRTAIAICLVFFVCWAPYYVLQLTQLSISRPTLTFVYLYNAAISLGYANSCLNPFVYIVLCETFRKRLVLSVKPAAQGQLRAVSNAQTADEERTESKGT

[20] = blockers of CAL PDZ–TMR peptide complex – biochemical, fluorescence polarization, untagged CAL PDZ, cherry-pick, set 2, dose response (AID 602254); assay type: functional
[21] = target: Interleukin-1 receptor-associated kinase 4 (Homo sapiens, UniProt Q9NWZ3); assay type: functional
Chain of Interleukin-1 receptor-associated kinase 4 (Q9NWZ3 whole entry): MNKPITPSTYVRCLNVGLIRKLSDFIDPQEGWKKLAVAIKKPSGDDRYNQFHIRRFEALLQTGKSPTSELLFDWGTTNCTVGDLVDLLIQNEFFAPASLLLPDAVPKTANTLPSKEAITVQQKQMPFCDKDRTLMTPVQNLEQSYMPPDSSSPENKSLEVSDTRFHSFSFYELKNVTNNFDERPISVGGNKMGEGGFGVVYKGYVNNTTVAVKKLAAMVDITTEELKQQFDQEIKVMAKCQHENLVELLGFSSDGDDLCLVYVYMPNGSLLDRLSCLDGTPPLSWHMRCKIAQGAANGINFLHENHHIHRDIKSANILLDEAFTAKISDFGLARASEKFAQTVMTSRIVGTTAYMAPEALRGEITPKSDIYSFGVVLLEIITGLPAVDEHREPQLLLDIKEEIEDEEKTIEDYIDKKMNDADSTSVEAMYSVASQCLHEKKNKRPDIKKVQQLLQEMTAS

[22] = target: Glycogen synthase kinase-3 beta (Homo sapiens, UniProt P49841); assay type: functional;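 also: value comes from a broad kinome profiling panel, with GSK3B as the panel member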
Chain of Glycogen synthase kinase-3 beta (P49841 whole entry): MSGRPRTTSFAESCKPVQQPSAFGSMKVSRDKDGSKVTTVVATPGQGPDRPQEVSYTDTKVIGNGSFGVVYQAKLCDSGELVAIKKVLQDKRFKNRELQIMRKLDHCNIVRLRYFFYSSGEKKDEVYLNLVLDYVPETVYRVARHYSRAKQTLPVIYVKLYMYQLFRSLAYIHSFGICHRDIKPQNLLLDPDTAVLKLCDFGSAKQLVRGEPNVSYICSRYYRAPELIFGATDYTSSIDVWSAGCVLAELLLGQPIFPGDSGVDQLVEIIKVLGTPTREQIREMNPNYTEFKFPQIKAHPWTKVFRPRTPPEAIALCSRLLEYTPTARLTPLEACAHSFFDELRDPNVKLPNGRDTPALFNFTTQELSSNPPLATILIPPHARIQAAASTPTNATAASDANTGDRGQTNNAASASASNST

[23] = target: Mitogen-activated protein kinase kinase kinase kinase 4 (Homo sapiens, UniProt O95819); assay type: functional
Chain of Mitogen-activated protein kinase kinase kinase kinase 4 (O95819 whole entry): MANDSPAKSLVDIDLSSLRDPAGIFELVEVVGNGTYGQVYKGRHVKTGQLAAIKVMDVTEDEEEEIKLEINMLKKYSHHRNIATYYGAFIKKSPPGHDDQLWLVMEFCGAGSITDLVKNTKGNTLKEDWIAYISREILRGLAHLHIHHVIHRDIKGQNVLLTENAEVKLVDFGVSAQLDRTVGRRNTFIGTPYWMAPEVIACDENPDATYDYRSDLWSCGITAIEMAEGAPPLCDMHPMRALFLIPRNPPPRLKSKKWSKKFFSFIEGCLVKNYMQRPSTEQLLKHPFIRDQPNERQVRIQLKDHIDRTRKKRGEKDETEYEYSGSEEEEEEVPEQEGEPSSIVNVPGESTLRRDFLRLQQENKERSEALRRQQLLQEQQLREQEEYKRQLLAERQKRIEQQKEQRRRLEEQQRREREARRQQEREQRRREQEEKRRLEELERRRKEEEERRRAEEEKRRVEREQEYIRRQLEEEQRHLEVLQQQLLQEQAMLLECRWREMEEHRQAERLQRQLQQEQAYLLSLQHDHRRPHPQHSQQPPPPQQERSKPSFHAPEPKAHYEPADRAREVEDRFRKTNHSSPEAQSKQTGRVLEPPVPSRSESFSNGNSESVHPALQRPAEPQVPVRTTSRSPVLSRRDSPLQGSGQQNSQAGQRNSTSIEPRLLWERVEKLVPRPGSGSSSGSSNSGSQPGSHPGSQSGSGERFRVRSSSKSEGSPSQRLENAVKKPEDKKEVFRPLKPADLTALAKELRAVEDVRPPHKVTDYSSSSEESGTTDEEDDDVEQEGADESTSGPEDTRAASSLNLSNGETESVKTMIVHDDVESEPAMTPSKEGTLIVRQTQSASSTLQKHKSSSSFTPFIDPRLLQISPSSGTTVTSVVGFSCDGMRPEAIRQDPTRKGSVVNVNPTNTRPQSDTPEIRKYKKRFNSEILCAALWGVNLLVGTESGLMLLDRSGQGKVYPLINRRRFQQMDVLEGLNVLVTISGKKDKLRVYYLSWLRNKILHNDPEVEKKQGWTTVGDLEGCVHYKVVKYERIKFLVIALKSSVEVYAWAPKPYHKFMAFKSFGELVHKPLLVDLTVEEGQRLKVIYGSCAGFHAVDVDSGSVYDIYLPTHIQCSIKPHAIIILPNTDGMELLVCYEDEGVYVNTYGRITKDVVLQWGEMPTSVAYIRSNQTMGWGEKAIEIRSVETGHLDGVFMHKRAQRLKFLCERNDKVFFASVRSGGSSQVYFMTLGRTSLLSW

[24] = target: Homeodomain-interacting protein kinase 2 (Homo sapiens, UniProt Q9H2X6); assay type: functional;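 also: measured within a kinome-wide kinase profiling panel, HIPK2 being one panel member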
Chain of Homeodomain-interacting protein kinase 2 (Q9H2X6 whole entry): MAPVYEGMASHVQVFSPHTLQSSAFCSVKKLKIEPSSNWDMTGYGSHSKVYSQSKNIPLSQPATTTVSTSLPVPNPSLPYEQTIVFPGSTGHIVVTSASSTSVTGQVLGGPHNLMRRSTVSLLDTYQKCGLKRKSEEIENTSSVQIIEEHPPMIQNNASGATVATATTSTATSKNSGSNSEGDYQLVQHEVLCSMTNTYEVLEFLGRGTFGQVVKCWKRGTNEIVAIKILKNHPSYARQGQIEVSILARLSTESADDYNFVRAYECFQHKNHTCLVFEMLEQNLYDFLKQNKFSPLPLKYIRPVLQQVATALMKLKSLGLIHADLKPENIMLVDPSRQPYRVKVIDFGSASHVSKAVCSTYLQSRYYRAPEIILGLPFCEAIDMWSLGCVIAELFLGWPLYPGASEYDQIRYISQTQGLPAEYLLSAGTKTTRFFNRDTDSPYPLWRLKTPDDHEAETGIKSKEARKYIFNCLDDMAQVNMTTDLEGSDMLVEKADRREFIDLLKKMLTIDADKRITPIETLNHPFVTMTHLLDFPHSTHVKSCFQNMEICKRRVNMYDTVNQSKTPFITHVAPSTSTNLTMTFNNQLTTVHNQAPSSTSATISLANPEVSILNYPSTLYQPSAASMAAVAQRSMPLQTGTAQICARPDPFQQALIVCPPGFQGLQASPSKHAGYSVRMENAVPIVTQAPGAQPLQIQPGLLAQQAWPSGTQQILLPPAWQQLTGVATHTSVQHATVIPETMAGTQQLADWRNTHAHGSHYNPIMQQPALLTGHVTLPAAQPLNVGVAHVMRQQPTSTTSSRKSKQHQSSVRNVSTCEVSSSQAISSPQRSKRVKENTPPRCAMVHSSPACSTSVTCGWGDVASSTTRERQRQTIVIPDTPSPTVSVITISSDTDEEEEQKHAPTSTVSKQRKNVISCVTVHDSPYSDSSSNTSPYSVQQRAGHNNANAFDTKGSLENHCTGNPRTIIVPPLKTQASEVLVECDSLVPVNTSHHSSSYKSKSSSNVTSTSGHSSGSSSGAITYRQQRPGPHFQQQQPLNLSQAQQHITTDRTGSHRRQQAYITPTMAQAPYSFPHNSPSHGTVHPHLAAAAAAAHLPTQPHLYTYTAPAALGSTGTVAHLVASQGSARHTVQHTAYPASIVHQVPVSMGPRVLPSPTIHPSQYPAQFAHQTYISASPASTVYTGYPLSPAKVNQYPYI

[25] = target: cAMP-dependent protein kinase catalytic subunit alpha (Homo sapiens, UniProt P17612); assay type: functional
[26] = target: Serine/threonine-protein kinase pim-1 (Homo sapiens, UniProt P11309); assay type: functional
Chain of Serine/threonine-protein kinase pim-1 (P11309 whole entry): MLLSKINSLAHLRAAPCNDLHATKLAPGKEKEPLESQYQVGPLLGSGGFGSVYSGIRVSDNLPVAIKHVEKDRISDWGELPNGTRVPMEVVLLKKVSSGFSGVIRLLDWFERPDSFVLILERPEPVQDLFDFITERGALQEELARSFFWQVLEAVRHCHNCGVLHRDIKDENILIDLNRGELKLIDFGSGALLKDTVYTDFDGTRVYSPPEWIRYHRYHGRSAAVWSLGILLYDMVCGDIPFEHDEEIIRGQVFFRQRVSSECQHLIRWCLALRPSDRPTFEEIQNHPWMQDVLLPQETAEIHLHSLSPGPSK

[27] = target: Cell division cycle 7-related protein kinase (Homo sapiens, UniProt O00311); assay type: functional;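 also: value obtained from a kinome-wide kinase panel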
[28] = target: Mitochondrial peptide methionine sulfoxide reductase (Bos taurus, UniProt P54149); assay type: functional;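 also: absorbance read-out, biochemical high-throughput dose-response screen for MsrA inhibitors, confirmatory; recombinant bovine MsrA coupled to E. coli TrxB with NADPH and selenocystamine; potency is for inhibitors of MsrA activity on DMSO substrate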
Chain of Mitochondrial peptide methionine sulfoxide reductase (P54149 whole entry): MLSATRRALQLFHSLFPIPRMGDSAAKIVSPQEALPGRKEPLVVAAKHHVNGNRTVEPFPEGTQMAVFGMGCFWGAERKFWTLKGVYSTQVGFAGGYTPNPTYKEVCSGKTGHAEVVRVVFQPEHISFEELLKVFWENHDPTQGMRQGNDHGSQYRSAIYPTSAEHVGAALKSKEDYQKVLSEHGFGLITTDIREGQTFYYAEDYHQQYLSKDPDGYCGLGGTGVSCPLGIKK

[29] = target: Mitogen-activated protein kinase 13 (Homo sapiens, UniProt O15264); assay type: functional
[30] = target: Proto-oncogene tyrosine-protein kinase Src (Homo sapiens, UniProt P12931); assay type: functional;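 also: SRC entry within a kinome-wide kinase profiling panel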
[31] = target: Tyrosine-protein kinase SYK (Homo sapiens, UniProt P43405); assay type: functional
[32] = THP-1 cell cytotoxicity, cytotoxicity control, set 4 (AID 504911); assay type: functional; conditions: Mycobacterium tuberculosis

CCOc1ccccc1NC(=O)CCS(=O)(=O)c1ccc2c(c1)CCN2C(C)=O
EC50 [1]: > 100 µM (inactive)

Cc1c(/C=C/C(=O)c2cccs2)cnn1C
IC50 [2]: > 49.8 µM (inactive)
IC50 [3]: 3.97 µM (active)
IC50 (CHO-K1): 35 µM (inactive)
IC50 (Orexin receptor type 2 [4]): > 50 µM (inactive)
IC50 [5]: > 49.8 µM (inactive)
IC50 (Orexin receptor type 2 [6]): > 88.8 µM (inactive)

CC1=CC(C)(C)Nc2ccc(OC(=O)CN3C(=O)CCC3=O)cc21
AC50 [7]: 2.79 µM (active)
EC50 [8]: 8.86 µM (active)
EC50 [9]: 8.84 µM (active)
EC50 [10]: 8.75 µM (active)
EC50 [11]: 0.79 µM (active)
IC50 [12]: 9.33 µM (active)
EC50 [13]: 2.93 µM (active)
IC50 [14]: 54 µM (inactive)
EC50 [15]: 5.71 µM (active)
IC50 [16]: 48.4 µM (inactive)
EC50 [17]: 7.45 µM (active)
EC50 (HT-1080): > 50 µM (not active)

COc1ccc(Oc2c(Cl)cnn(Cc3cccc4ccccc34)c2=O)c(F)c1F
IC50 [18]: 0.292 µM (active)
IC50 [19]: 2.05 µM (active)

CCOC(=O)C(C#N)c1c(Cl)c(Br)nn(Cc2cccc3ccccc23)c1=O (stereo unspecified)
IC50 [18]: 1.45 µM (active)
IC50 [19]: 3.33 µM (active)

O=C(CNC(=O)c1ccc2c(c1)OCCO2)N/N=C/c1ccc(Cl)cc1
AC50 [20]: 101 µM (active)

Cc1n[nH]c2ccc(-c3cncc(OCCN(C)S(C)(=O)=O)c3)cc12
Ki [21]: 3.16 µM (active)
Ki [22]: 0.398 µM (active)
Ki [23]: 0.126 µM (active)
Ki [24]: > 3.16 µM (inactive)
Ki [25]: 0.631 µM (active)
Ki [26]: 5.01 µM (active)
Ki [27]: 0.0126 µM (active)

COC(=O)CC/C(C)=N\Nc1ccc([N+](=O)[O-])cc1[N+](=O)[O-]
IC50 [28]: 155 µM (inactive)

Cn1cc(C=C2C(=O)Nc3cccnc32)c2ccccc21 [GW441756X]
Ki [29]: > 7.94 µM (inactive)
Ki [30]: 0.501 µM (active)
Ki [31]: 0.501 µM (active)

NC(=O)c1cnccn1 [PYRAZINAMIDE]
CC50 [32]: > 100 µM (active)
